Biological target: T1, UGT1A3 (Homo sapiens, UniProt P35503)
T1 sequence (P35503 29-534): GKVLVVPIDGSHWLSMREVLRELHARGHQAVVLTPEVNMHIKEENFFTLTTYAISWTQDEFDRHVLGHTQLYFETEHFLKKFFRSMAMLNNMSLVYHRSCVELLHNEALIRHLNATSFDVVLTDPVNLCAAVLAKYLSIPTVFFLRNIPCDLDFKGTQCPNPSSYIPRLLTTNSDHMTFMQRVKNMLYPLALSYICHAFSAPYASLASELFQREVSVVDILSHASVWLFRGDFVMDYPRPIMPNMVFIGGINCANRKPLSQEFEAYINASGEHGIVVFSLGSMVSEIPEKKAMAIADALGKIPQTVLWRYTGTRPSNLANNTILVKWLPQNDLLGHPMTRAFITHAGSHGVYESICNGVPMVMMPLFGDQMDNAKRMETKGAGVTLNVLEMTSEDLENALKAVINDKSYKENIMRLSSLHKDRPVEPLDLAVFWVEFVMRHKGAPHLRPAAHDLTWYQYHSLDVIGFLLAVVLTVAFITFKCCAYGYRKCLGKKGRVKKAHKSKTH
Test: UGT1A3-catalyzed chenodeoxycholic acid 24-acyl-glucuronidation in human liver microsomes
Format: in vitro ADME
Set-up: from tissue; host or cells: ultrapooled human liver microsomes
Method: The inhibitory effects of EAM-2201 on UGT1A1, UGT1A3, UGT1A4, UGT1A6, UGT1A9 and UGT2B7 were evaluated using LC-MS/MS and the cocktail of UGT substrates as previously described. […] Supernatant from sets A and B (50 µL of each) was mixed and aliquots (5 µL) were analyzed by LC-MS/MS. […]
Reactions were initiated by adding UDPGA at 37 °C and stopped after 60 min by adding 100 µL ice-cold methanol containing propofol glucuronide (internal standard). […] Aliquots (5 µL) of the diluted supernatants were analyzed using LC-MS/MS.
The metabolites formed from the six UGT cocktail substrates were simultaneously measured using LC-MS/MS [41]. […] Each metabolite was quantified via SRM in the negative ion mode: chenodeoxycholic acid 24-acyl-β-glucuronide, 567.2 > 391.0; mycophenolic acid glucuronide, 495.2 > 318.9; and propofol glucuronide (IS), 353.3 > 177.1; and in the positive ion mode: SN-38 glucuronide, 569.0 > 393.0; trifluoperazine glucuronide, 584.2 > 408.1; N-acetylserotonin-β-D-glucuronide, 395.2 > 219.0; naloxone 3-β-D-glucuronide, 504.0 > 310.0; and meloxicam (IS), 352.0 > 115.1. […]

## CCc1ccc(C(=O)c2cn(CCCCCF)c3ccccc23)c2ccccc12 [EAM-2201, (4-ethyl-1-naphthalenyl)[1-(5-fluoropentyl)-1H-indol-3-yl]-methanone]
  IC50: 11.7 µM
  Ki: 2.4 µM
